Laboratory results from patent US9994577B2, “Azepanyl-derivatives and pharmaceutical compositions comprising the same with antiparasitic activity” (Merck Patent GmbH, priority 2014, dated 2018).

Test system: P falciparum PF3D/0087/N9
Experiment: In vivo efficacy in a murine model of P. falciparum-malaria (4-day test)
Set-up: species or system Plasmodium falciparum
Conditions: NODscidIL2Rynull mice engrafted with human erythrocytes
From the text: In vivo efficacy against P falciparum PF3D/0087/N9 for the compounds no. 2 and 3 as described in Examples 16 and 17.
The in vivo activity in a murine model of P. falciparum-malaria was adapted from the protocol as provided by Angulo-Barturen I, Jimènez-Diaz M B, Mulet T, Rullas J, Herreros E, et al. (2008) PLoS ONE 3(5): e2252. doi:10.1371/journal.pone.0002252.
This study measures the therapeutic efficacy of compounds no. 2 and 3 against Plasmodium falciparum growing in peripheral blood of NODscidIL2Rynull mice engrafted with human erythrocytes. The antimalarial efficacy of compounds no. 2 and 3 were assessed using a “4-day test”.
The parameters of efficacy estimated in the study are a) the dose of compounds no. 2 and 3 in mg·kg^−1 that reduces parasitemia at day 7 after infection by 90% with respect to vehicle-treated mice (parameter denoted as ED90)

SMILES	ED90, dose that reduces parasitemia at day 7 after infection by 90% with respect to vehicle-treated mice [mg/kg]
O[C@@H]1CNCCC[C@H]1n1c2ccc(Cl)cc2c2cc(Cl)ccc21 (stereo in doubt) [Compound 2, (3R,4R)-4-(3,6-dichloro-9H-carbazol-9-yl)azepan-3-ol]	< 10
O[C@@H]1CNCCC[C@H]1n1c2ccc(C(F)(F)F)cc2c2cc(C(F)(F)F)ccc21 [Compound 3, (3R,4R)-4-[3,6-bis(trifluoromethyl)-9H-carbazol-9-yl]azepan-3-ol]	< 3

Test system: P. falciparum NF54
Experiment: P. falciparum growth assay ([3H]hypoxanthine incorporation)
Type: cell-based
Conditions: Plasmodium falciparum, [3H]-hypoxanthine incorporation at 72 h, read-out: EC50 (nM), concentration that inhibits by 50% the incorporation of [3H]-hypoxanthine
Description: P. falciparum strain NF54 was obtained from the Research and Reference Reagent Resource Center (MR4) (Manassas, Va.). The two strains were maintained in vitro by a modification of the method of Trager and Jensen. Cultures were maintained in A positive (A+) human erythrocytes suspended at 5% hematocrit in complete medium. 5 g albumax II (Gibco-Invitrogen, Cat No#11021037), 2.5 mg gentamicin (Sigma Aldrich), 25 mM HEPES (Invitrogen), 5 mg hypoxanthine (Sigma), and 1 L of RPMI 1640 (Invitrogen, Cat No#11875085). Cultures were grown in 100 mm petri-dishes (BD Falcon) at a volume of 15 mL and were kept in a standard gas environment of 4% CO2 and 3% O2 at temperature 37° C. in a tri-gas incubator (Cat#3131, Thermo Scientific Forma Series II Water Jacketed). Parasite growth and morphology were observed daily using thin smears at 100× (oil immersion) magnification following staining with Geimsa stain. […]
Parasite growth was detected in assay by the traditional [3H]hypoxanthine incorporation assay as previously described by Desjardins and colleagues (Antimicrob. Agents Chemother., 16(6), 710, 1979). To perform the [3H]hypoxanthine incorporation assay, the new antimalarial agents were serially diluted 1:1 into hypoxanthine-free complete medium to a final volume of 100 μL (final antimalarial agent concentration range, 10,000 nM to 4.8 nM may change in special case) in 96 well sterile cell culture plates. […] All cultures used in the study are albumax II adopted. The microtiter plates were incubated in chamber in a standard gas environment at 37° C. for 72 h. After 48 h of incubation and prior to addition of 50 μL (0.5 μCi/well) 3H-Hypoxanthine (specific activity, 20 Ci/mmol, Conc. 1.0 mCi/ml; American Radiolabeled Chemicals, Inc., St. Louis, Mo.), culture growth was assessed by making the smears that ensures the culture has grown and assay plate is further incubated for 24 h.
Following the incubation period, the plates were harvested with a FilterMate cell harvester (Perkin Elmer) onto unifilter-96 GF/B plates, washed with distilled water to remove excess radiochemical and plates were kept for drying 37° C. overnight or 60° C. for 1 h. 50 μL of Microscint scintillation cocktail (Microscint-High Efficiency LSC-Cocktail; Perkin Elmer) added in the unifilter-96 GF/B plates and kept for 15-20 min. The plates were counted in a Top Count NXT microplate scintillation and luminescence counter (Perkin Elmer). The mean values for [3H]hypoxanthine incorporation in parasitized control and non-parasitized control erythrocytes were calculated.

SMILES	EC50 [nM]
CS(=O)(=O)c1c(C(F)(F)F)ccc2c1c1cc(C(F)(F)F)ccc1n2C1CCCNC[C@@H]1O (mixture of isomers) [6 (mixture of isomers), (3R,4R)-4-[4-methylsulfonyl-3,6-bis(trifluoromethyl)carbazol-9-yl]azepan-3-ol]	45.9
COc1cc(Cl)cc2c3cc(Cl)ccc3n([C@H]3CCCNC[C@@H]3O)c12 (racemic) [8 (racemic), (3S,4S)-4-(3,6-dichloro-1-methoxy-9H-carbazol-9-yl)azepan-3-ol]	32.9
O[C@H]1CNCCCC1N1c2ccc(Cl)cc2Oc2cc(Cl)ccc21 (mixture of isomers) [10 (mixture of isomers), (3R,4R)-4-(3,7-dichloro-10H-phenoxazin-10-yl)azepan-3-ol]	21
COc1cc2c(cc1Cl)c1cc(Cl)ccc1n2[C@H]1CCCNC[C@@H]1O (racemic) [Compound 9, (3R,4R)-4-(3,6-dichloro-2-methoxy-9H-carbazol-9-yl)azepan-3-ol]	18
O[C@H]1CNCCC[C@@H]1n1c2ccc(C(F)(F)F)cc2c2cc(C(F)(F)F)cnc21 (racemic) [Compound 14 (i), (3R,4R)-4-[3,6-bis(trifluoromethyl)pyrido[2,3-b]indol-9-yl]azepan-3-ol]	16.6
O[C@@H]1CNCCC[C@H]1n1c2ccc(Cl)cc2c2cc(Cl)ccc21 (stereo in doubt) [Compound 2, (3R,4R)-4-(3,6-dichloro-9H-carbazol-9-yl)azepan-3-ol]	36.4
O[C@@H]1CNCCC[C@H]1n1c2ccc(C(F)(F)F)cc2c2cc(C(F)(F)F)ccc21 [Compound 3, (3R,4R)-4-[3,6-bis(trifluoromethyl)-9H-carbazol-9-yl]azepan-3-ol]	2.55
COc1cc2c(cc1C(F)(F)F)c1nc(C(F)(F)F)ccc1n2[C@@H]1CCCNC[C@H]1O [Compound 17, (3R,4R)-4-(7-methoxy-2,8-bis(trifluoromethyl)-5H-pyrido[3,2-b]indol-5-yl)azepan-3-ol]	12.8
COc1cc2c(cc1C(F)(F)F)c1nc(C(F)(F)F)ccc1n2[C@H]1CCCNC[C@@H]1O [Compound 18, (3S,4S)-4-(7-methoxy-2,8-bis(trifluoromethyl)-5H-pyrido[3,2-b]indol-5-yl)azepan-3-ol]	5.4
COc1cc(Cl)cc2c3nc(C(F)(F)F)ccc3n([C@@H]3CCCNC[C@H]3O)c12 [Compound 19, (3R,4R)-4-(8-chloro-6-methoxy-2-(trifluoromethyl)-5H-pyrido[3,2-b]indol-5-yl)azepan-3-ol]	24

Other lines, results leading:

EC50 [nM]	SMILES
13.1	COc1cc(Cl)cc2c3nc(C(F)(F)F)ccc3n([C@H]3CCCNC[C@@H]3O)c12 [Compound 20, (3S,4S)-4-(8-chloro-6-methoxy-2-(trifluoromethyl)-5H-pyrido[3,2-b]indol-5-yl)azepan-3-ol]
41.7	O[C@@H]1CNCCC[C@H]1n1c2ccc(Cl)cc2c2nc(C(F)(F)F)ncc21 [Compound 21, (3R,4R)-4-(8-chloro-2-(trifluoromethyl)-5H-pyrimido[5,4-b]indol-5-yl)azepan-3-ol]
46.1	O[C@H]1CNCCC[C@@H]1n1c2ccc(Cl)cc2c2nc(C(F)(F)F)ncc21 [Compound 22, (3S,4S)-4-(8-chloro-2-(trifluoromethyl)-5H-pyrimido[5,4-b]indol-5-yl)azepan-3-ol]
11.2	O[C@@H]1CNCCC[C@H]1n1c2ccc(C(F)(F)F)nc2c2cc(C(F)(F)F)cnc21 [Compound 23, (3R,4R)-4-(2,8-bis(trifluoromethyl)-5H-pyrrolo[2,3-b:4,5-b′]dipyridin-5-yl)azepan-3-ol]
2.3	O[C@H]1CNCCC[C@@H]1n1c2ccc(C(F)(F)F)nc2c2cc(C(F)(F)F)cnc21 [Compound 24, (3S,4S)-4-(2,8-bis(trifluoromethyl)-5H-pyrrolo[2,3-b:4,5-b′]dipyridin-5-yl)azepan-3-ol]
28.2	O=C1CC[C@@H](n2c3ccc(Cl)cc3c3cc(Cl)ccc32)[C@H](O)CN1 [Compound 27, (5R,6R)-5-(3,6-dichloro-9H-carbazol-9-yl)-6-hydroxyazepan-2-one]
